The source of these data is US20060106014A1, “Methods for treating diabetes” (priority 2004, published 2006).

In test [1] the test system is NIDDM male mice (C57BLKS/J-m+/+Lepr db). Description: Therapeutic study: serum glucose levels in diabetic animals. Format: in vivo. The following applies: i.p. twice daily. The protocol:
In vivo evaluation of the role of dual inhibitor of both 5-LO and 12/15-LO enzymes in the reduction of serum glucose levels and insulin was performed in C57BLKs/J-m+/+Lepr db mice, a non-insulin dependent diabetic mellitus (NIDDM) model, as described in Examples. […] […].
Non-insulin dependent diabetic mellitus (NIDDM) male mice (C57BLKS/J-m+/+Lepr db), weighing 45±5 g (10 weeks of age) and provided by Institute for Animal Reproduction (IAR, Japan), were used.
Groups of 10 non-insulin dependent diabetic mellitus (NIDDM) male mice (C57BLKS/J-m+/+Lepr db), weighing 45±5 g and 10-weeks-old, were used. The animals were housed in Individually Ventilated Cages Racks (IVC Racks) throughout the experiment; all animals were allowed free access to sterilized Lab chow and sterilized distilled water. The test compounds, as well as vehicle (0.5% DMSO/2% Tween 80/0.9% NaCl), were each administered intraperitoneally twice daily (1st at 9:00 A.M. and 2nd at 16:00 P.M.) for a total of 14 consecutive days. Using blood samples collected from the orbital sinus, pre-treatment serum glucose and insulin levels were determined 24 hours prior to the first dosing on day 0. Post-treatment glucose and insulin levels were detected 4 hours after dosing on days 11 and 14. Also, serum glucose and insulin levels were obtained before and 15, 30 and 90 minutes after glucose loading (orally glucose tolerance test (OGTT) 2 g/kg), 4 hours following the dosing on day 11. Serum glucose and Insulin (on days 0, 11 and 14) levels were determined by enzymatic (Mutaratase-GOD) and ELISA (mouse insulin assay kit) methods, respectively. The percentage of post-treatment relative to pre-treatment group values obtained on days 11 and 14 were analyzed using One Way ANOVA followed by Dunnett's test for comparison between vehicle and treated groups. […]
For effect on OGTT, AUC (area under the curve) for the serum glucose at times 0, 15, 30, and 90 minutes after OGTT was plotted for each test compound and its respective vehicle control. […] Body weight and food intake were measured daily through the course of the study.

In test [2] the target is T1, 5-lipoxygenase (Homo sapiens, UniProt P09917).
T1 sequence (P09917 1-674): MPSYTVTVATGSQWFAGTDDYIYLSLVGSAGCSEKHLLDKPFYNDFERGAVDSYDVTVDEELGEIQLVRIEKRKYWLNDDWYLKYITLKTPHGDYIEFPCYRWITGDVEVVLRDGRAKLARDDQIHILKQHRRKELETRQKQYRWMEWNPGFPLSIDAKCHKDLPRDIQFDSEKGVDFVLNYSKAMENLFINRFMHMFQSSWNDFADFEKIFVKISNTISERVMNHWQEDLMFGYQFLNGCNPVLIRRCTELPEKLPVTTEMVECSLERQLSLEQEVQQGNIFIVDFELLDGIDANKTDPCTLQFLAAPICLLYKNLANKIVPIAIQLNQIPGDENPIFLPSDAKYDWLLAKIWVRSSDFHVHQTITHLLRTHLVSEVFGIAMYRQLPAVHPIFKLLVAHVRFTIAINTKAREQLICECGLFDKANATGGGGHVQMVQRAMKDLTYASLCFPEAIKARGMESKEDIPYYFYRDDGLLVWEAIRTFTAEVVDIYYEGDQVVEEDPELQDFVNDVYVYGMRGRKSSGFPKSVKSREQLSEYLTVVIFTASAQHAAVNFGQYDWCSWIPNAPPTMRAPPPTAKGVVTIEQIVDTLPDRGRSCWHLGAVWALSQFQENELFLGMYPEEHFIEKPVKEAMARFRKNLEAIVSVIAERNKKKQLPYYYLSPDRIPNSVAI
The note with it: background; cited from earlier work.

Test [3] has as its target T2, porcine leukocyte 12/15-lipoxygenase (Sus scrofa, UniProt P16469).
T2 construct: purchased Cayman 60300
T2 sequence (P16469 1-663): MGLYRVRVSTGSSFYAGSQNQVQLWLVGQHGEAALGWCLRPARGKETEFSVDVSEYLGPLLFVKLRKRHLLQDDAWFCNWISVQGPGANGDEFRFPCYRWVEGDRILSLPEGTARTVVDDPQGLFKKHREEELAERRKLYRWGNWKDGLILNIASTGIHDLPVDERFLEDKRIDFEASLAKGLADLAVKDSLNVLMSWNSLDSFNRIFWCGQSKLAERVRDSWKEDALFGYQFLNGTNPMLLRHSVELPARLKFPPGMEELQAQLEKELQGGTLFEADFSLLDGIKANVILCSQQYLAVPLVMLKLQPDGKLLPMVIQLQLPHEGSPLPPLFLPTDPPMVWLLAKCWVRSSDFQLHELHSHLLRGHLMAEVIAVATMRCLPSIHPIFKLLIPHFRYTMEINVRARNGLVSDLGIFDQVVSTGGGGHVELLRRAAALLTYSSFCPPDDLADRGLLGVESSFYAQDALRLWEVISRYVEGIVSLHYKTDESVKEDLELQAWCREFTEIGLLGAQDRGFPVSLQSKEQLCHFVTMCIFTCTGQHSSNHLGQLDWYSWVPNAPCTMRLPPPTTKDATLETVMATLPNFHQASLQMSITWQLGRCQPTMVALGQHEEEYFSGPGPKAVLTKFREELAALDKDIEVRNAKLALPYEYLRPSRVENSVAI
Briefly: 12/15-Lipoxygenase Enzyme Assay (colorimetric, ferric oxidation of xylenol orange). Format: biochemical. The protocol: This procedure was used for measuring the enzymatic activity of porcine leukocyte 12/15-lipoxygenase using a colorimetric method based on the ferric oxidation of xylenol orange.
(§1) The test compound and/or vehicle were added to 1.3 μL 12/15-lipoxygenase in 50 mM Tris-HCl buffer, pH 7.4. The reaction was initiated by addition of 70 μM arachidonic acid in Tris-HCl buffer, pH 7.4, and terminated after a 10 minute incubation at room temperature by addition of FOX reagent (25 mM sulphuric acid, 100 μM xylenol orange, 100 μM iron (II) sulphate, methanol:water 9:1). The yellow color of acidified xylenol orange was converted to a blue color by the lipid hydroperoxide-mediated oxidation of Fe^2+ ions and the interaction of the resulting Fe^3+ ions with the dye. The complex was allowed to form during a 1 hour incubation at room temperature with shaking. Absorbance of the Fe^3+ complex was then measured at 620 nm using a spectrophotometer.
Negative controls contained enzyme during the incubation step but substrate was not added until after the FOX reagent.

In test [4] the target is T1, 5-lipoxygenase. Briefly: 5-Lipoxygenase Enzyme Assay (colorimetric, ferric oxidation of xylenol orange). Format: biochemical. The arrangement: purchased Cayman 60402. The protocol: This procedure was used for measuring the enzymatic activity of human recombinant 5-lipoxygenase using a colorimetric method based on the ferric oxidation of xylenol orange.
as §1, with “was” for “were”, “0.5” for “1.3”, “5-lipoxygenase” for “12/15-lipoxygenase”, “spectrophotometer. Negative controls contained enzyme during the incubation step but substrate was not added until after the FOX reagent.” for “spectrophotometer.”

Where [5] appears, read: read-out: classification as dual inhibitor: 12/15-LO enzyme assay IC50.
Where [6] appears, read: read-out: classification as dual inhibitor: 5-LO enzyme assay IC50.

Each structure is given as a SMILES string. Read-outs that look alike come from different tables or passages of the source. Some results are limits rather than exact numbers.

Turning to `CC(c1cc2ccccc2s1)N(O)C(N)=O` (centres unmarked) [C, Zileuton, reference compound], the “reduction in serum glucose relative to the respective vehicle control group (FIG. 2)” value in test [1] (30 mg/kg, p<0.01) was “reduction in serum glucose”. For the same compound, the “5-lipoxygenase inhibition / specificity as reported in the literature” value on 5-lipoxygenase [2] is given as “specific”.
With `CC(Cc1ccc(O)c(O)c1)C(C)Cc1ccc(O)c(O)c1` (centres unmarked) [Compound A, Nordihydroguaiaretic acid (NDGA)], on 5-lipoxygenase [2], the “5-lipoxygenase inhibition / specificity as reported in the literature” value is “inhibitor”.
`Cc1c(O)c(C)c2c(c1F)OC(C)(C)CC2` [Compound D, 8-fluoro-2,2,5,7-tetramethylchroman-6-ol]: the IC50 (in test [3] (setting [5]); in test [3] (read-out: in vitro IC50 value in a 12/15-LO enzyme assay); on 5-lipoxygenase [4] (setting [6]); at 5-lipoxygenase [4] (read-out: in vitro IC50 value in a 5-LO enzyme assay)) was less than 5 µM in each case. Further, the “reduction in baseline elevated blood glucose level in comparison to the vehicle group” value in test [1] is 13%.
Regarding `Cc1c(O)cc2c(c1C)N(c1ccc(O)cc1)C(C)CC2` (centres unmarked) [Compound E, 1-(4-hydroxyphenyl)-2,7,8-trimethyl-1,2,3,4-tetrahydroquinolin-6-ol], the IC50 (in test [3] (setting [5]); at 5-lipoxygenase [4] (setting [6])) was less than 5 µM in each case. Moreover, in test [1] (15 mg/kg, p<0.05), the “lowering of serum glucose levels compared to respective control (FIG. 2)” value was “significant lowering”.
